Measured values as given in ChEMBL document CHEMBL1795325, “Studying synergism of methyl linked cyclohexyl thiophenes with triazole: synthesis and their cdk5/p25 inhibition activity” (Eur J Med Chem, 2011).
Values belong to the compound of their own block, whether it stands above or below them.

Key:
[1] = Selectivity ratio, ratio of IC50 for CDK2/Cyclin E to IC50 for CDK5/p25
[2] = target: Cyclin-dependent kinase 2/cyclin E1 (Homo sapiens, UniProt P24941); assay: Inhibition of CDK2/Cyclin E by scintillation proximity assay; assay type: protein-complex assay
[3] = target: Cyclin-dependent kinase 5/CDK5 activator 1 (Homo sapiens, UniProt Q00535); assay type: protein-complex assay
Cyclin-dependent kinase 5/CDK5 activator 1, sequence (Q00535 whole entry): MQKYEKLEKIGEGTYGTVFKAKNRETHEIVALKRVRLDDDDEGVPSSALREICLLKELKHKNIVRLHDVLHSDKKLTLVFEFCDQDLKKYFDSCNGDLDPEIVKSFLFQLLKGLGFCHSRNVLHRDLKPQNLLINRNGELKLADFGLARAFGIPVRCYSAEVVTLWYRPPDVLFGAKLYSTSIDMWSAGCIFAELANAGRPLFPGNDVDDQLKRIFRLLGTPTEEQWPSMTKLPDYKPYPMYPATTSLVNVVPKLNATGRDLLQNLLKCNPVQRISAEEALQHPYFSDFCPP
Cyclin-dependent kinase 5/CDK5 activator 1, sequence (Q15078 whole entry, further chain): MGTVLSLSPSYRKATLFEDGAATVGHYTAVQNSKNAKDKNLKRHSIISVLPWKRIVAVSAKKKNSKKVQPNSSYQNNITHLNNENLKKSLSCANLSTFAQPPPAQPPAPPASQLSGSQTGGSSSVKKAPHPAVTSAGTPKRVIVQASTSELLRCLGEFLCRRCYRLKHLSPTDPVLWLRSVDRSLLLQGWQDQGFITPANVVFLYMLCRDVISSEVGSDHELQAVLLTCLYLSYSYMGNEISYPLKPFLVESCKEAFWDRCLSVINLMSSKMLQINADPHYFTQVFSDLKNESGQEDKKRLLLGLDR

[4] = test system: Vero; assay: Cytotoxicity against african green monkey Vero C1008 cells at 6.25 to 50 ug/ml by neutral red uptake assay; assay type: cell-based; settings: chlorocebus sabaeus

SMILES: COC(=O)CSc1nnc(Cc2c(NC(=O)CCl)sc3c2CCCC3)n1NC(=O)c1ccc(Cl)cc1
IC50 [3]: 0.443 µM
Activity [4]: Non-toxic

SMILES: N#CCSc1nnc(Cc2c(NC(=O)CCl)sc3c2CCCC3)n1NC(=O)c1ccccc1
IC50 [3]: 0.657 µM
Activity [4]: Non-toxic

SMILES: O=C(CSc1nnc(Cc2c(NC(=O)CCl)sc3c2CCCC3)n1NC(=O)c1ccc(Cl)cc1)NNC(=O)c1ccccc1
IC50 [3]: 0.617 µM
Activity [4]: Non-toxic

SMILES: CC(=O)NNC(=O)CSc1nnc(Cc2c(NC(=O)CCl)sc3c2CCCC3)n1NC(=O)c1ccc(Cl)cc1
IC50 [3]: 0.468 µM
Activity [4]: Non-toxic

SMILES: O=C(CCl)NNC(=O)CSc1nnc(Cc2c(NC(=O)CCl)sc3c2CCCC3)n1NC(=O)c1ccccc1
IC50 [3]: 0.532 µM
Activity [4]: Non-toxic

SMILES: CC(=O)Nn1c(Cc2c(NC(=O)CCl)sc3c2CCCC3)n[nH]c1=S
IC50 [3]: 0.689 µM
Activity [4]: Non-toxic

SMILES: O=C(CCl)Nc1sc2c(c1Cc1nnc(SCSc3nnc(Cc4c(NC(=O)CCl)sc5c4CCCC5)n3NC(=O)c3ccccc3)n1NC(=O)c1ccccc1)CCCC2
IC50 [3]: 0.669 µM
Activity [4]: Non-toxic

SMILES: Nn1c(S)nnc1CSc1nnc(Cc2c(NC(=O)CCl)sc3c2CCCC3)n1NC(=O)c1ccc(Cl)cc1
IC50 [3]: 2.86 µM
Activity [4]: Non-toxic

SMILES: O=C(CSc1nnc(Cc2c(NC(=O)CCl)sc3c2CCCC3)n1NC(=O)c1ccccc1)NNC(=O)c1ccccc1
IC50 [3]: 0.468 µM
Activity [4]: Non-toxic

SMILES: Nn1c(S)nnc1Cc1c(NC(=O)c2ccccc2)sc2c1CCCC2
IC50 [3]: 0.621 µM
Activity [4]: Non-toxic

SMILES: COC(=O)CSc1nnc(Cc2c(NC(=O)CCl)sc3c2CCCC3)n1NC(=O)c1ccccc1
IC50 [3]: 0.681 µM
Activity [4]: Non-toxic

SMILES: O=C(O)CCNc1sc2c(c1CC(=O)NNC(=S)[S-])CCCC2.[K+]
IC50 [3]: 0.397 µM
Activity [4]: Non-toxic

SMILES: CC(=O)Nn1c(Cc2c(NC(=O)CCl)sc3c2CCCC3)nnc1SCc1n[nH]c(=S)n1N
IC50 [3]: 4.03 µM
Activity [4]: Non-toxic

SMILES: CC(=O)Nn1c(Cc2c(NC(=O)CCl)sc3c2CCCC3)nnc1SCSc1nnc(Cc2c(NC(=O)CCl)sc3c2CCCC3)n1NC(C)=O
IC50 [3]: 0.849 µM
Activity [4]: Non-toxic

SMILES: O=C(CCl)Nc1sc2c(c1Cc1n[nH]c(=S)n1NC(=O)c1ccccc1)CCCC2
IC50 [3]: 0.751 µM
Activity [4]: Non-toxic

SMILES: CC(=O)Nn1c(Cc2c(NC(=O)CCl)sc3c2CCCC3)nnc1SCC(=O)NNC(=O)CCl
IC50 [3]: 0.452 µM
Activity [4]: Non-toxic

SMILES: COC(=O)CSc1nnc(Cc2c(NC(=O)CCl)sc3c2CCCC3)n1NC(C)=O
IC50 [3]: 0.695 µM
Activity [4]: Non-toxic

SMILES: Nn1c(S)nnc1CSc1nnc(Cc2c(NC(=O)CCl)sc3c2CCCC3)n1NC(=O)c1ccccc1
IC50 [3]: 6.18 µM
Activity [4]: Non-toxic

SMILES: CC(=O)NNC(=O)CSc1nnc(Cc2c(NC(=O)CCl)sc3c2CCCC3)n1NC(C)=O
IC50 [3]: 0.454 µM
Activity [4]: Non-toxic

SMILES: COC(=O)CSc1nnc(Cc2c(NCCC(=O)O)sc3c2CCCC3)n1NC(=O)c1ccc(Cl)cc1
IC50 [3]: 0.541 µM

SMILES: COC(=O)CSc1nnc(Cc2c(NC(C)=O)sc3c2CCCC3)n1NC(=O)c1ccccc1
IC50 [3]: 0.578 µM

SMILES: CC(=O)Nn1c(Cc2c(NCCC(=O)O)sc3c2CCCC3)n[nH]c1=S
IC50 [3]: 0.433 µM

SMILES: O=C(CCl)NNC(=O)CSc1nnc(Cc2c(NC(=O)c3ccccc3)sc3c2CCCC3)n1NC(=O)c1ccccc1
IC50 [3]: 0.547 µM

SMILES: COC(=O)CSc1nnc(Cc2c(NC(C)=O)sc3c2CCCC3)n1NC(C)=O
IC50 [3]: 0.389 µM

Further lines, with some results ahead:

Ratio IC50 [1]: 13.2
IC50 [2]: 0.487 µM
IC50 [3]: 0.037 µM
SMILES: NNC(=O)CSc1nnc(Cc2c(NC(=O)CCl)sc3c2CCCC3)n1NC(=O)c1ccccc1
Activity [4]: Non-toxic

IC50 [3]: 0.373 µM
SMILES: O=C(Cc1c(NC(=O)c2ccccc2)sc2c1CCCC2)NNC(=S)[S-].[K+]
Activity [4]: Non-toxic

IC50 [3]: 0.336 µM
SMILES: CC(=O)Nn1c(Cc2c(NC(=O)CCl)sc3c2CCCC3)nnc1SCC(=O)N/N=C/c1ccccc1
Activity [4]: Non-toxic

IC50 [3]: 0.268 µM
SMILES: Nn1c(S)nnc1Cc1c(NCCC(=O)O)sc2c1CCCC2
Activity [4]: Non-toxic

Ratio IC50 [1]: 1.4
IC50 [2]: 0.048 µM
IC50 [3]: 0.035 µM
SMILES: O=C(CSc1nnc(Cc2c(NC(=O)CCl)sc3c2CCCC3)n1NC(=O)c1ccc(Cl)cc1)N/N=C/c1ccccc1
Activity [4]: Non-toxic

IC50 [3]: 0.363 µM
SMILES: CC(=O)Nn1c(Cc2c(NC(=O)CCl)sc3c2CCCC3)nnc1SCC(=O)NNC(=O)c1ccccc1
Activity [4]: Non-toxic

IC50 [3]: 0.35 µM
SMILES: CC(=O)NNC(=O)CSc1nnc(Cc2c(NC(=O)CCl)sc3c2CCCC3)n1NC(=O)c1ccccc1
Activity [4]: Non-toxic

IC50 [3]: 0.343 µM
SMILES: O=C(CCl)Nc1sc2c(c1Cc1n[nH]c(=S)n1NC(=O)c1ccc(Cl)cc1)CCCC2
Activity [4]: Non-toxic

IC50 [3]: 0.386 µM
SMILES: CC(=O)Nc1sc2c(c1Cc1nnc(S)n1N)CCCC2
Activity [4]: Non-toxic

Ratio IC50 [1]: > 17.5
IC50 [2]: 0.56 µM
IC50 [3]: 0.032 µM
SMILES: O=C(CSc1nnc(Cc2c(NC(=O)CCl)sc3c2CCCC3)n1NC(=O)c1ccccc1)N/N=C/c1ccccc1
Activity [4]: Non-toxic

Ratio IC50 [1]: 19.6
IC50 [2]: 1.14 µM
IC50 [3]: 0.058 µM
SMILES: N#CCSc1nnc(Cc2c(NC(=O)CCl)sc3c2CCCC3)n1NC(=O)c1ccc(Cl)cc1
Activity [4]: Non-toxic

Ratio IC50 [1]: 1.2
IC50 [2]: 0.052 µM
IC50 [3]: 0.043 µM
SMILES: Nn1c(S)nnc1Cc1c(NC(=O)CCl)sc2c1CCCC2
Activity [4]: Non-toxic

IC50 [3]: 0.229 µM
SMILES: O=C(CCl)NNC(=O)CSc1nnc(Cc2c(NC(=O)CCl)sc3c2CCCC3)n1NC(=O)c1ccc(Cl)cc1
Activity [4]: Non-toxic

Ratio IC50 [1]: 98.1
IC50 [2]: 5.99 µM
IC50 [3]: 0.061 µM
SMILES: CC(=O)Nn1c(Cc2c(NC(=O)CCl)sc3c2CCCC3)nnc1SCC(=O)NN
Activity [4]: Non-toxic

IC50 [3]: 0.346 µM
SMILES: CC(=O)Nc1sc2c(c1CC(=O)NNC(=S)[S-])CCCC2.[K+]
Activity [4]: Non-toxic

IC50 [3]: 0.247 µM
SMILES: O=C(Cc1c(NC(=O)CCl)sc2c1CCCC2)NNC(=S)[S-].[K+]
Activity [4]: Non-toxic

IC50 [3]: 0.34 µM
SMILES: O=C(CCl)Nc1sc2c(c1Cc1nnc(SCSc3nnc(Cc4c(NC(=O)CCl)sc5c4CCCC5)n3NC(=O)c3ccc(Cl)cc3)n1NC(=O)c1ccc(Cl)cc1)CCCC2
Activity [4]: Non-toxic

Ratio IC50 [1]: 9.2
IC50 [2]: 0.587 µM
IC50 [3]: 0.064 µM
SMILES: CC(=O)Nc1sc2c(c1Cc1nnc(SCC(=O)NN)n1NC(=O)c1ccc(Cl)cc1)CCCC2

Ratio IC50 [1]: 20.5
IC50 [2]: 0.799 µM
IC50 [3]: 0.039 µM
SMILES: NNC(=O)CSc1nnc(Cc2c(NC(=O)CCl)sc3c2CCCC3)n1NC(=O)c1ccc(Cl)cc1
Activity [4]: Non-toxic

IC50 [3]: 0.389 µM
SMILES: COC(=O)CSc1nnc(Cc2c(NC(C)=O)sc3c2CCCC3)n1NC(=O)c1ccc(Cl)cc1

Ratio IC50 [1]: 21.6
IC50 [2]: 1.32 µM
IC50 [3]: 0.061 µM
SMILES: CC(=O)Nn1c(Cc2c(NC(=O)CCl)sc3c2CCCC3)nnc1SCC#N
Activity [4]: Non-toxic
